The results in this text go back to PubChem BioAssay (NCI).

“And” between values parts separate entries of the source, which are not always exact repeats. Equal entries are not always repeated.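 48-hour exposure; five concentrations; linearly interpolated endpoints. Abbreviation: GI50, concentration required for 50% inhibition of growth. TGI marks complete inhibition of growth.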

Test systems include SN12C renal; NCI/ADR-RES ovarian; NCI-H460 lung; MDA-MB-231 breast; OVCAR-4 ovarian; KM12 colon; UO-31 renal; T-47D breast; HCT-15 colon; DU-145 prostate.
Experiment in all cases: growth of human tumour cells (NCI), 48 h

For `O=C(c1ccccc1)C(CN1CCOCC1)c1ccccc1` (stereo not given), the GI50 with SN12C renal was 1.73 µM; in the assay on NCI/ADR-RES ovarian, 2.83 µM; in the assay with NCI-H460 lung it was 2.51 µM; in the assay with MDA-MB-231 breast it was 1.83 µM; in the assay with OVCAR-4 ovarian, 3.88 µM; in the assay with KM12 colon, 1.8 µM. Besides, the GI50 in the assay with UO-31 renal was 1.41 µM; with T-47D breast, 3 µM; in the assay with HCT-15 colon, 0.641 µM; in the assay on DU-145 prostate, 1.16 µM. Moreover, the TGI was found to be 4.47 µM in the assay with SN12C renal; 14.1 µM in the assay on NCI/ADR-RES ovarian; 7.76 µM in the assay on NCI-H460 lung; 5.05 µM in the assay on MDA-MB-231 breast; 19.3 µM with OVCAR-4 ovarian; 3.73 µM in the assay on KM12 colon. Besides, the TGI in the assay with UO-31 renal stood at 3.02 µM; with T-47D breast, 9.87 µM; in the assay on HCT-15 colon it was 2.21 µM; with DU-145 prostate, 2.44 µM.
In the case of `O=S(=O)(NCCNC/C=C/c1ccc(Br)cc1)c1cccc2cnccc12`, the GI50 is 7.25 µM and 14.6 µM in the assay on SN12C renal; 12.3 µM and 14.3 µM in the assay with NCI/ADR-RES ovarian; 9.76 µM and 15.4 µM in the assay on NCI-H460 lung; 8.1 µM and 14.2 µM with MDA-MB-231 breast; 5.51 µM and 7.36 µM in the assay with OVCAR-4 ovarian; 9.78 µM and 13.7 µM in the assay with KM12 colon. Moreover, the GI50 with UO-31 renal was 4.8 µM and 5.17 µM; with T-47D breast, 3.93 µM and 6.45 µM; in the assay on HCT-15 colon, 11.2 µM and 11.4 µM; in the assay on DU-145 prostate, 12.4 µM and 14.5 µM. Also, the TGI with SN12C renal is 21 µM and 31.4 µM; in the assay with NCI/ADR-RES ovarian it was 28.8 µM and 32.3 µM; in the assay with NCI-H460 lung, 26.2 µM and 31.6 µM; in the assay with MDA-MB-231 breast, 21.7 µM and 29.7 µM; in the assay on OVCAR-4 ovarian it was 18.6 µM and 23.6 µM; with KM12 colon, 23.3 µM and 28.8 µM. Also, the TGI in the assay on UO-31 renal was 18.4 µM and 20.2 µM; in the assay with T-47D breast, 18.4 µM and 26 µM; in the assay with HCT-15 colon, 27.3 µM and 25.5 µM; in the assay with DU-145 prostate, 25.1 µM and 27.6 µM.
Consider `CC1=C(CCC(C)N(C)Cc2ccc(OCCCN3CCCC3)cc2)C(C)(C)CCC1` (stereo not given), for which the GI50 with SN12C renal is 11 µM; with NCI/ADR-RES ovarian, 10.4 µM; in the assay with NCI-H460 lung it was 3.02 µM; in the assay on MDA-MB-231 breast, 1.89 µM; in the assay with OVCAR-4 ovarian it was 7.76 µM; in the assay with KM12 colon, 4.6 µM. Besides, the GI50 is 3.2 µM in the assay with UO-31 renal, 1.72 µM in the assay on T-47D breast, 1.42 µM in the assay on HCT-15 colon and 10.8 µM in the assay with DU-145 prostate. Also, the TGI in the assay on SN12C renal turned out to be 24.8 µM; with NCI/ADR-RES ovarian, 25 µM; with NCI-H460 lung it was 8.81 µM; in the assay with MDA-MB-231 breast it was 4.48 µM; in the assay on OVCAR-4 ovarian, 21.4 µM; in the assay with KM12 colon, 17.7 µM. Moreover, the TGI in the assay with UO-31 renal was 13.3 µM; with T-47D breast, 4.97 µM; with HCT-15 colon, 4.8 µM; with DU-145 prostate, 23.4 µM.
For the compound `Cc1ccc(C2=NOC3=c4ccccc4=CSC3=C2c2ccc([N+](=O)[O-])cc2)cc1`, the GI50 in the assay with SN12C renal was 18.3 µM; with NCI/ADR-RES ovarian it was 31.4 µM; in the assay on NCI-H460 lung, 16.9 µM; with MDA-MB-231 breast, 8.59 µM; in the assay with OVCAR-4 ovarian it was 95.6 µM; with KM12 colon, 61.1 µM. The GI50 in the assay with UO-31 renal is 27.8 µM; in the assay on T-47D breast, 5.22 µM; with HCT-15 colon, 33.2 µM; in the assay with DU-145 prostate, 15.2 µM. Besides, the TGI with SN12C renal is more than 100 µM; in the assay on NCI/ADR-RES ovarian, more than 100 µM; in the assay on NCI-H460 lung, more than 100 µM; in the assay with MDA-MB-231 breast it was 28 µM; with OVCAR-4 ovarian, more than 100 µM; in the assay on KM12 colon, more than 100 µM. Moreover, the TGI is more than 100 µM in the assay on UO-31 renal, 47.1 µM in the assay with T-47D breast, more than 100 µM with HCT-15 colon and more than 100 µM in the assay with DU-145 prostate.
As to `O=C1C=C(Br)c2c(-c3ccccc3)oc3cccc1c23`, the TGI in the assay on SN12C renal was more than 100 µM; in the assay on NCI/ADR-RES ovarian it was more than 100 µM; with NCI-H460 lung, more than 100 µM; in the assay on MDA-MB-231 breast, 78.2 µM; in the assay with OVCAR-4 ovarian it was more than 100 µM; in the assay on KM12 colon, more than 100 µM. For the same compound, the TGI in the assay on UO-31 renal was more than 100 µM; with T-47D breast it was more than 100 µM; in the assay with HCT-15 colon, more than 87.1 µM; in the assay with DU-145 prostate, more than 100 µM.
As to `N/C(=N\N=C\c1ccc(-c2ccccc2)cc1)N[N+](=O)[O-]`, the GI50 was 7.3 µM with SN12C renal; 1.46 µM in the assay on NCI/ADR-RES ovarian; 2.98 µM in the assay with NCI-H460 lung; more than 68 µM in the assay on MDA-MB-231 breast; 10.8 µM in the assay with OVCAR-4 ovarian; 1.27 µM with KM12 colon. Moreover, the GI50 is 6.22 µM in the assay with UO-31 renal, 4.8 µM in the assay on T-47D breast, 2.03 µM in the assay on HCT-15 colon and 5.76 µM in the assay with DU-145 prostate. Moreover, the TGI with SN12C renal is more than 100 µM; with NCI/ADR-RES ovarian, more than 86.1 µM; with NCI-H460 lung, more than 100 µM; in the assay on MDA-MB-231 breast it was more than 100 µM; with OVCAR-4 ovarian, more than 100 µM; in the assay on KM12 colon, more than 100 µM. Besides, the TGI in the assay on UO-31 renal, in the assay with T-47D breast, in the assay on HCT-15 colon and with DU-145 prostate was more than 100 µM in each case.
